Counter-ions that a name gives are not always drawn. Like-named read-outs stand apart in the source and are kept apart here.
Columns and labels:
[1] = target: T1, human FGFR4 (Homo sapiens, UniProt P22455); assay: 33P isotope-labeled kinase activity test (Reaction Biology Corp), wild-type FGFR4; type: biochemical; settings: 33P-ATP 2.5 μM, substrate pEY + Mn, 120 minutes at room temperature
T1 construct: purchased Invitrogen P3054
Method: (§1) The IC50 value is determined using ^33P isotope-labeled kinase activity test (Reaction Biology Corp) to evaluate the inhibitory ability of the compounds to be tested on human FGFR1 and FGFR4.
(§2) Buffer conditions: 20 mM 4-(2-hydroxyethyl)-1-piperazineethanesulfonic acid (Hepes) (pH 7.5), 10 mM MgCl2, 1 mM ethylene glycol-bis-(2-aminoethyl ether)tetraacetic acid (EGTA), 0.02% polyoxyethylene lauryl ether (Brij35), 0.02 mg/ml bovine serum albumin (BSA), 0.1 mM sodium vanadate (Na3VO4), 2 mM dithiothreitol (DTT), and 1% DMSO.
(§3) Test steps: At room temperature, the compounds to be tested are dissolved in DMSO to prepare a 10 mM solution for use. The substrate is dissolved in the newly prepared buffer, and the kinase to be tested is added and mixed well. The DMSO solution in which the compounds to be tested are dissolved is added to the above-mentioned homogeneous reaction solution using acoustic technology (Echo 550). […] After incubating for 15 minutes, ^33P-ATP (activity: 0.01 μCi/μl, with corresponding concentration being listed in table 1) is added to start the reaction. The supplier article number, batch number, and the concentration information in the reaction solution of FGFR1, FGFR4 and substrates thereof are listed in table 1. After the reaction is carried out at room temperature for 120 minutes, the reaction solution is spotted on P81 ion exchange filter paper (Whatman #3698-915). After the filter paper is repeatedly washed with 0.75% phosphoric acid solution, the radioactivity of the phosphorylated substrate remaining on the filter paper is measured. The kinase activity data is expressed by comparing the kinase activity of the groups containing the compounds to be tested with that of the blank group (containing only DMSO). The IC50 value is obtained by curve fitting using Prism4 software (GraphPad), and the experimental results are shown in table 2.

[2] = target: T2, FGFR2 (Homo sapiens, UniProt P21802); assay: 33P isotope-labeled kinase activity test (Reaction Biology Corp), wild-type FGFR2; type: biochemical; settings: for Selectivity FGFR1/2: ratio of IC50 FGFR1 to IC50 FGFR2; for IC50: wild-type kinase, 33P-ATP 5 μM, substrate pEY + Mn, 120 minutes at room temperature
T2 construct: purchased Invitrogen PV3368

[3] = target: T3, human FGFR1 (Homo sapiens, UniProt P11362); assay: 33P isotope-labeled kinase activity test (Reaction Biology Corp), wild-type FGFR1; type: biochemical; settings: 33P-ATP 5 μM, substrate pEY + Mn, 120 minutes at room temperature
T3 construct: purchased Invitrogen PV3146
Method: as §1, §2
as §3, with “After the reaction is carried out at room temperature for 120 minutes, the reaction solution is spotted on P81 ion exchange filter paper (Whatman #3698-915). After the filter paper is repeatedly washed with 0.75% phosphoric acid solution, the radioactivity of the phosphorylated substrate remaining on the filter paper is measured.” left out

[4] = target: T4, FGFR3 (Homo sapiens, UniProt P22607); assay: 33P isotope-labeled kinase activity test (Reaction Biology Corp), wild-type FGFR3; type: biochemical; settings: for Selectivity FGFR1/3: ratio of IC50 FGFR1 to IC50 FGFR3; for IC50: wild-type kinase, 33P-ATP 30 μM, substrate pEY + Mn, 120 minutes at room temperature
T4 construct: purchased Invitrogen PV3145

[5] = Pharmacokinetic evaluation of compounds in mice; type: in vivo; settings: CD-1 mouse (male), single gavage, plasma; for MRT last: read-out: MRT0-last
Method: Experimental purpose: testing pharmacokinetics of the compounds in mice
CD-1 mouse (male), vehicle (an aqueous solution of 0.5% (w/v) methylcellulose and 0.5% (v/v) Tween 80), and trfluoroacetate salt of compound 0027.
The animals in groups 1 and 2 are administrated […] of the compounds by single gavage, respectively, and the administration volume is 10 mL/kg.
Whole blood samples (30 μl) are collected at the prescribed time points (0.25, 0.5, 1, 2, 4, 6, 8, 24 h) by saphenous vein blood collection, and the actual blood collection time is recorded in the test record. The acceptable error of the collection time point is a time point within 1 hour of administration time ±1 minute, and the acceptable error of other time points is a theoretical time ±5%.
All blood samples are immediately transferred to labeled commercial centrifuge tubes containing K2-EDTA. After being collected, the blood samples are centrifuged at 3200 rpm/min for 10 minutes at 4° C. to aspirate the supernatant plasma, which is quickly placed in dry ice, and kept at −20° C. or a lower temperature for LC-MS/MS analysis.

T1 sequence (P22455 22-802): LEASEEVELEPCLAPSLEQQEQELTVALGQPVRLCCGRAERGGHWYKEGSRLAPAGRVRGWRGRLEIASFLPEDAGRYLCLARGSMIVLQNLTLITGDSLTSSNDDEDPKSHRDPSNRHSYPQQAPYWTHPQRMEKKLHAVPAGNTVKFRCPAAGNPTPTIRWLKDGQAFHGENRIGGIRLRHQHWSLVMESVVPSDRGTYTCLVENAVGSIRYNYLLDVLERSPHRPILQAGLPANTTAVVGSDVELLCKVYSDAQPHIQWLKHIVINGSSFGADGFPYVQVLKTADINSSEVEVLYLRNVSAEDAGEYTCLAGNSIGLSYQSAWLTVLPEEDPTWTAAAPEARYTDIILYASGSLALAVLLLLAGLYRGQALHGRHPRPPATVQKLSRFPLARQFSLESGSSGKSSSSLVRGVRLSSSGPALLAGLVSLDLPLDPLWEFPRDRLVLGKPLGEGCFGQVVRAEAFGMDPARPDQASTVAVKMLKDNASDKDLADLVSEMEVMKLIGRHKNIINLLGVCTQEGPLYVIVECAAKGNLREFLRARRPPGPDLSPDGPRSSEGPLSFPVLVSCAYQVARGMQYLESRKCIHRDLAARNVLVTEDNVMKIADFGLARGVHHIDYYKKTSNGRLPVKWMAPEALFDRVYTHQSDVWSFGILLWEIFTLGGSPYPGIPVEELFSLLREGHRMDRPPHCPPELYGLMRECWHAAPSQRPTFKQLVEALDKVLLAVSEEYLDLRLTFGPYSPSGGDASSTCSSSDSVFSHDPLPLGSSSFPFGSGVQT
T2 sequence (P21802 22-821): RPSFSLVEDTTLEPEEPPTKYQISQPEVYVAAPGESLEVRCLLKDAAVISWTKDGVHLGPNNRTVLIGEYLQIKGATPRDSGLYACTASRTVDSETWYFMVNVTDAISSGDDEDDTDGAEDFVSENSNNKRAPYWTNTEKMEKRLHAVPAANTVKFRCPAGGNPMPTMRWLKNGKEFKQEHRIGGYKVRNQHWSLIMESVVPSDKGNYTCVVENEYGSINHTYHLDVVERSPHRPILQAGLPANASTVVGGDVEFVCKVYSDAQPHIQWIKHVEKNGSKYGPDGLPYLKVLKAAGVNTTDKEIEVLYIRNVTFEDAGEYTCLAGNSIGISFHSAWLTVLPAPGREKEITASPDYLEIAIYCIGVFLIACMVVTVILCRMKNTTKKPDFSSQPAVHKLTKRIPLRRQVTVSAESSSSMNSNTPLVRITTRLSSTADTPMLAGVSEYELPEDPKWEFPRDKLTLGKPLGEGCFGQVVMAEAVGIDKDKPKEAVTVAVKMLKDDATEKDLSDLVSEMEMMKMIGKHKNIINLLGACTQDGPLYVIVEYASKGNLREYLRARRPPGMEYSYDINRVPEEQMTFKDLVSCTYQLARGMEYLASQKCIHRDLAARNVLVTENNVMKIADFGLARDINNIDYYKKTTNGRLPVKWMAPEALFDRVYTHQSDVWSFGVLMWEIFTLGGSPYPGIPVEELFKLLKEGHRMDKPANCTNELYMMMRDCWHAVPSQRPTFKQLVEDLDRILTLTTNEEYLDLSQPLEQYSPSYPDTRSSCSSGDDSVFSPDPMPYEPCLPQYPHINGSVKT
T4 sequence (P22607 23-806): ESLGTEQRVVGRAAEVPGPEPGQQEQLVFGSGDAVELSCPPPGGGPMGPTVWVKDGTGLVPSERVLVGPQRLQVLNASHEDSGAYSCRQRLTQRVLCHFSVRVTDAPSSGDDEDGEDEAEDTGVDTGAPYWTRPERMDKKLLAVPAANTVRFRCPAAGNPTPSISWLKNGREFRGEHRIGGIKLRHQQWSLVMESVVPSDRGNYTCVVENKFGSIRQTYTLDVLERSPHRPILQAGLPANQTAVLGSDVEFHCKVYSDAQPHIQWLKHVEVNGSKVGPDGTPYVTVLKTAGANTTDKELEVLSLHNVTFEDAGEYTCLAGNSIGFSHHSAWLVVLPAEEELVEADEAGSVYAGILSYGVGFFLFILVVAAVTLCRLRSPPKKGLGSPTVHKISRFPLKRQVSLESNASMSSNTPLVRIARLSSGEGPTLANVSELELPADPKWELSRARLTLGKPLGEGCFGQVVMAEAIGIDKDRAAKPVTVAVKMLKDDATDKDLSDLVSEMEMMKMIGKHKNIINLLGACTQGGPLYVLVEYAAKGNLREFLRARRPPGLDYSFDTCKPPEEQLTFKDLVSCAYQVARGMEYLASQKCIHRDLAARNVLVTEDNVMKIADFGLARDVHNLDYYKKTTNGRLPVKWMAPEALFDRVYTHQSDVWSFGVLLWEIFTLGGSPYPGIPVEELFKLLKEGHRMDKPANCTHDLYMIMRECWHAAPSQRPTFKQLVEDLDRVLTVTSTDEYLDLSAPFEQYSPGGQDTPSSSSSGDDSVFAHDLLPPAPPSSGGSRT
T3 sequence (P11362 22-822): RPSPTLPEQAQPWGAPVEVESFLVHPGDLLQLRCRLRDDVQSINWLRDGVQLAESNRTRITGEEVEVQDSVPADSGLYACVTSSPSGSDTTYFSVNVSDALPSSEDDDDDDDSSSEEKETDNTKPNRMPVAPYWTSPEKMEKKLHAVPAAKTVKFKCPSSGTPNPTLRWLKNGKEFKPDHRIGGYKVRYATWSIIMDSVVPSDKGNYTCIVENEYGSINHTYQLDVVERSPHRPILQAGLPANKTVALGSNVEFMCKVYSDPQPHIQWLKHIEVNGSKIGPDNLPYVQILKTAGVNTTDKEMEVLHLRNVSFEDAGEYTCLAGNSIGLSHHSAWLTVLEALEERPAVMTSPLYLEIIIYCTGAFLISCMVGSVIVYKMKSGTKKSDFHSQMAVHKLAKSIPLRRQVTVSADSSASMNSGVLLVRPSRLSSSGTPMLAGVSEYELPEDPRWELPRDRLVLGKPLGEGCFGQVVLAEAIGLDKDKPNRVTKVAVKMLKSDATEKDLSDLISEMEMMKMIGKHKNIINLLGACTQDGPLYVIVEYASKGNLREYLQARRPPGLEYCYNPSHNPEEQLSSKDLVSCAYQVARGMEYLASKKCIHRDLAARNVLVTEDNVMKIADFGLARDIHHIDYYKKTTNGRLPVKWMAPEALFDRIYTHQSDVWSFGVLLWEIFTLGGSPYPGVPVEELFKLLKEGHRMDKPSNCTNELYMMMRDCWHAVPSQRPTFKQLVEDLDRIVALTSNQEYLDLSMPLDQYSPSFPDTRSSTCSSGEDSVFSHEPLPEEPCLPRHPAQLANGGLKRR

SMILES	IC50 [1]	Selectivity FGFR1/2 [2]	IC50 [2]	IC50 [3]	Selectivity FGFR1/3 [4]	IC50 [4]	Tlast ([5]; 300 mpk)	AUC(0-inf) ([5]; po, 50 mg/kg, 50 mpk)	AUC(0-t) ([5]; po, 50 mg/kg, 50 mpk)	Cmax ([5]; po, 50 mg/kg, 50 mpk)	Tmax ([5]; po, 50 mg/kg, 50 mpk)	half-life ([5]; po, 50 mg/kg, 50 mpk)	MRT inf ([5]; po, 50 mg/kg, 50 mpk, read-out: MRT0-inf)	MRT last ([5]; po, 50 mg/kg, 50 mpk)	AUC(0-t) ([5]; po, 300 mg/kg, 300 mpk)	Cmax ([5]; po, 300 mg/kg, 300 mpk)	Tmax ([5]; po, 300 mg/kg, 300 mpk)	MRT last ([5]; po, 300 mg/kg, 300 mpk)
COc1cc(OC)cc(-c2nc(-c3nc(-c4ccc(C5CCN(C)CC5)nc4)cnc3N)cn(C)c2=O)c1 [Hydrochloride salt of 0036]	> 10000 nM	5.31	2.48 nM	13.2 nM	7.28	1.81 nM												
COc1cc(OC)cc(-c2nc(-c3nc(-c4cn(C5CCN(C)CC5)nc4C)cnc3N)cn(C)c2=O)c1 [Trifluoroacetate salt of 0016]	8640 nM	6.94	4.21 nM	29.2 nM	5.92	4.93 nM												
COc1cc(OC)c(Cl)c(-c2nc(-c3nc(-c4cn(C)nc4C)cnc3N)cn(C)c2=O)c1 [Trifluoroacetate salt of 0027]	106 nM	4.02	0.53 nM	2.12 nM	3.06	0.69 nM	24.0 h	95.8 µM·h	85.8 µM·h	14.8 µM	1 h	2.46 h	5.39 h	4.33 h	699 µM·h	42.1 µM	7 h	11.1 h
COc1cc(OC)cc(-c2nc(-c3nc(-c4cn(CC5(C#N)CC5)nc4C)cnc3N)cn(C)c2=O)c1 [compound 0043]		4.17	12.7 nM	53 nM	6.63	7.99 nM												
COc1cc(OC)cc(-c2nc(-c3nc(-c4cn(CCO)nc4C)cnc3N)cn(C)c2=O)c1 [compound 0048]		4.79	56.1 nM	269 nM	4.65	57.8 nM												
COc1cc(OC)cc(-c2nc(-c3nc(-c4cnn(CCO)c4C)cnc3N)cn(C)c2=O)c1 [compound 0049]		3.07	65.5 nM	201 nM	5.85	34.3 nM												
COc1cc(OC)cc(-c2nc(-c3nc(-c4cnn(CC5(C#N)CC5)c4C)cnc3N)cn(C)c2=O)c1 [compound 0051]		4.48	6.54 nM	29.3 nM	7.12	4.11 nM												
COc1cc(OC)cc(-c2nc(-c3nc(-c4cncc(C)c4)cnc3N)cn(C)c2=O)c1 [compound 0056]		10.62	11.9 nM	126 nM	11.76	10.8 nM												
COc1cc(OC)cc(-c2nc(-c3nc(-c4ccc(C5(C#N)CCC5)nc4)cnc3N)cn(C)c2=O)c1 [compound 0059]			3060 nM	> 10000 nM		49.4 nM												

Reference: US11286248B2, “Pyrazine-2(1H)-ketone compound acting as FGFR inhibitor” (ZHANGZHOU PIEN TZE HUANG PHARMACEUTICAL CO., LTD., priority 2018, dated 2022)
